The results in this text go back to PubChem BioAssay (NCI).

Some test systems named below: KM12 colon; MALME-3M melanoma; NCI-H23 lung; OVCAR-5 ovarian; SK-MEL-2 melanoma; SK-MEL-28 melanoma; SNB-19 CNS; U251 CNS; UO-31 renal.
What all share (assay): NCI-60 cell line screen, 48 h

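Values below derive from 48-hour exposures of cells grown in 96-well plates, with endpoints linearly interpolated between the two concentrations bracketing the appropriate inhibition level. GI50 marks 50% less growth. The concentration for full growth arrest is given as TGI.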 A value given as a limit tells only on which side of the number the result lay.

Take `CSc1c(C)c(C)nn1-c1ccccc1`: the TGI with KM12 colon, in the assay with MALME-3M melanoma, with NCI-H23 lung, with OVCAR-5 ovarian, in the assay with SK-MEL-2 melanoma and with SK-MEL-28 melanoma was above 100 µM in each case. Further, the TGI in the assay on SNB-19 CNS, in the assay on U251 CNS and with UO-31 renal was above 100 µM each time.

With `Cn1cc(-c2csc(-c3cn(C)c4ccccc34)n2)c2cnccc21`, the GI50 in the assay on KM12 colon was 1 µM; with MALME-3M melanoma, 2.01 µM; with NCI-H23 lung, 1.64 µM; in the assay on OVCAR-5 ovarian it was 1.77 µM; in the assay with SK-MEL-2 melanoma it was 2 µM; in the assay on SK-MEL-28 melanoma it was 1.77 µM. Moreover, the GI50 in the assay on SNB-19 CNS is 1.76 µM; in the assay with U251 CNS, 1.86 µM; in the assay on UO-31 renal, 1.47 µM. The TGI turned out to be 2.48 µM in the assay with KM12 colon; 3.61 µM in the assay with MALME-3M melanoma; 3.44 µM with NCI-H23 lung; 3.25 µM in the assay on OVCAR-5 ovarian; 3.7 µM in the assay with SK-MEL-2 melanoma; 3.21 µM in the assay with SK-MEL-28 melanoma. Besides, the TGI with SNB-19 CNS worked out at 3.28 µM; with U251 CNS, 3.45 µM; with UO-31 renal, 3.16 µM.

With `O=C1C2=C(c3ccccc31)C(c1ccccc1Cl)N1C(=O)CCSC1=N2` (stereo not drawn), the TGI with KM12 colon, with MALME-3M melanoma, in the assay with NCI-H23 lung, with OVCAR-5 ovarian, in the assay on SK-MEL-2 melanoma and in the assay with SK-MEL-28 melanoma was above 100 µM throughout. Further, the TGI with SNB-19 CNS, in the assay on U251 CNS and in the assay on UO-31 renal was above 100 µM each time.

With `O=C(O)CCC(NC(=S)S)C(=O)O.[Na+].[Zn+2]` (stereo not drawn), the GI50 with KM12 colon, with MALME-3M melanoma, in the assay with NCI-H23 lung, with OVCAR-5 ovarian, in the assay on SK-MEL-2 melanoma and in the assay with SK-MEL-28 melanoma was above 50 µM throughout. Moreover, the GI50 in the assay with SNB-19 CNS, in the assay on U251 CNS and in the assay on UO-31 renal was above 50 µM throughout. Further, the TGI in the assay on KM12 colon, with MALME-3M melanoma, in the assay with NCI-H23 lung, with OVCAR-5 ovarian, in the assay on SK-MEL-2 melanoma and in the assay with SK-MEL-28 melanoma was above 50 µM in each case. The TGI in the assay with SNB-19 CNS, in the assay on U251 CNS and in the assay with UO-31 renal was above 50 µM in each case.

Consider `Cc1cc(N(CCC#N)CCC#N)ccc1/C=C1N=C(/C=C/c2ccccc2)OC(=O)N\1`, for which the TGI in the assay with KM12 colon, in the assay on MALME-3M melanoma, with NCI-H23 lung, with OVCAR-5 ovarian, with SK-MEL-2 melanoma and in the assay on SK-MEL-28 melanoma was above 100 µM in each case. For the same molecule, the TGI in the assay on SNB-19 CNS, in the assay with U251 CNS and with UO-31 renal was above 100 µM in each case.

In the case of `CC(=O)[O-].CC(=O)[O-].CC(=O)[O-].CC(=O)[O-].[Mo+2].[Mo+2]`, the GI50 in the assay with KM12 colon, in the assay on MALME-3M melanoma, in the assay on NCI-H23 lung, in the assay on OVCAR-5 ovarian, with SK-MEL-2 melanoma and in the assay with SK-MEL-28 melanoma was above 100 µM throughout. For the same molecule, the GI50 in the assay with SNB-19 CNS, in the assay on U251 CNS and in the assay with UO-31 renal was above 100 µM in each case. Further, the TGI in the assay with KM12 colon, in the assay on MALME-3M melanoma, with NCI-H23 lung, with OVCAR-5 ovarian, in the assay on SK-MEL-2 melanoma and in the assay on SK-MEL-28 melanoma was above 100 µM in each case. The TGI in the assay with SNB-19 CNS, in the assay on U251 CNS and in the assay on UO-31 renal was above 100 µM in each case.

Regarding `C=CCC1[C@@H](C(C)(C)C(C(C)=O)C(=O)C(=O)OC)OC(C(C)(C)C)N1C(=O)OC` (stereo partly drawn), the TGI in the assay with KM12 colon, in the assay on MALME-3M melanoma, in the assay on NCI-H23 lung, in the assay with OVCAR-5 ovarian, with SK-MEL-2 melanoma and in the assay with SK-MEL-28 melanoma was above 100 µM in each case. Moreover, the TGI with SNB-19 CNS, in the assay on U251 CNS and in the assay on UO-31 renal was above 100 µM throughout.

For the molecule `O=c1c2c3c(sc2n2c(-c4cc(-c5ccccc5)nn4-c4ccccc4)nnc2n1Cc1ccccc1)CCCC3`, the GI50 in the assay with KM12 colon, in the assay on MALME-3M melanoma, in the assay with NCI-H23 lung, in the assay on OVCAR-5 ovarian, in the assay with SK-MEL-2 melanoma and in the assay with SK-MEL-28 melanoma was above 100 µM throughout. The GI50 in the assay on SNB-19 CNS, in the assay on U251 CNS and with UO-31 renal was above 100 µM in each case. The TGI with KM12 colon, in the assay on MALME-3M melanoma, with NCI-H23 lung, in the assay on OVCAR-5 ovarian, with SK-MEL-2 melanoma and with SK-MEL-28 melanoma was above 100 µM in each case. Besides, the TGI in the assay with SNB-19 CNS, in the assay with U251 CNS and in the assay on UO-31 renal was above 100 µM in each case.

For the molecule `CC1CCCc2c1nn(C(=O)/C=C(\N)c1ccccc1)c2N` (stereo not drawn), the GI50 is 5.97 µM with KM12 colon; 9.4 µM with MALME-3M melanoma; 5.5 µM in the assay with NCI-H23 lung; 31 µM in the assay with OVCAR-5 ovarian; 34.8 µM in the assay with SK-MEL-2 melanoma; 17.9 µM with SK-MEL-28 melanoma. Also, the GI50 in the assay with SNB-19 CNS is 25.2 µM; in the assay with U251 CNS, 5.06 µM; in the assay on UO-31 renal, 3.92 µM. Besides, the TGI was above 100 µM in the assay with KM12 colon; above 100 µM with MALME-3M melanoma; 92.9 µM in the assay on NCI-H23 lung; above 100 µM with OVCAR-5 ovarian; above 100 µM in the assay with SK-MEL-2 melanoma; above 100 µM in the assay on SK-MEL-28 melanoma. The TGI with SNB-19 CNS, with U251 CNS and in the assay on UO-31 renal was above 100 µM throughout.

In the case of `OC(c1ccc(Br)cc1)(c1cccs1)C1CC1` (stereo not drawn), the TGI stood at 35.3 µM with KM12 colon; 41.5 µM in the assay on MALME-3M melanoma; 56.9 µM with NCI-H23 lung; 70.5 µM with OVCAR-5 ovarian; 40.4 µM in the assay with SK-MEL-2 melanoma; 51.3 µM in the assay with SK-MEL-28 melanoma. In addition, the figures for the TGI with SNB-19 CNS, with U251 CNS and in the assay with UO-31 renal were above 100 µM, 35.4 µM and 48.1 µM, respectively.

On to `COc1cc2cnc3c4ccccc4ccc3c2cc1OC`, for which the TGI in the assay with KM12 colon, in the assay on MALME-3M melanoma, in the assay with NCI-H23 lung, in the assay with OVCAR-5 ovarian, in the assay on SK-MEL-2 melanoma and in the assay on SK-MEL-28 melanoma was above 100 µM each time. For the same molecule, the TGI in the assay on SNB-19 CNS, in the assay on U251 CNS and in the assay with UO-31 renal was above 100 µM each time.

Regarding `CCOC1Oc2ccccc2-c2oc(=O)c(Sc3ccc(C)cc3)cc21` (stereo not drawn), the GI50 is 34.4 µM with KM12 colon; 24.6 µM with MALME-3M melanoma; 40.4 µM in the assay with NCI-H23 lung; above 100 µM in the assay with OVCAR-5 ovarian; 49.4 µM with SK-MEL-2 melanoma; 84.2 µM with SK-MEL-28 melanoma. Also, the GI50 in the assay with SNB-19 CNS was 29.1 µM; in the assay on U251 CNS it was 25.1 µM; in the assay on UO-31 renal it was 16.4 µM. For the same molecule, the TGI is above 100 µM with KM12 colon; 91.6 µM in the assay on MALME-3M melanoma; above 100 µM with NCI-H23 lung; above 100 µM with OVCAR-5 ovarian; above 100 µM in the assay with SK-MEL-2 melanoma; above 100 µM in the assay with SK-MEL-28 melanoma. The TGI in the assay with SNB-19 CNS, in the assay on U251 CNS and with UO-31 renal was above 100 µM in each case.

Regarding `CC1=C(C(=O)Nc2ccccc2C)C(/C=C/c2ccccc2)C(C(=O)Nc2ccccc2C)=C(C)N1`, the TGI in the assay with KM12 colon, in the assay on MALME-3M melanoma, in the assay with NCI-H23 lung, in the assay with OVCAR-5 ovarian, in the assay with SK-MEL-2 melanoma and with SK-MEL-28 melanoma was above 100 µM in each case. Further, the TGI in the assay on SNB-19 CNS, in the assay on U251 CNS and with UO-31 renal was above 100 µM in each case.

On to `COc1ccccc1-c1cc(=O)c2ccc(C)nc2[nH]1`, for which the TGI with KM12 colon, with MALME-3M melanoma, with NCI-H23 lung, in the assay on OVCAR-5 ovarian, in the assay on SK-MEL-2 melanoma and with SK-MEL-28 melanoma was above 100 µM throughout. For the same molecule, the TGI with SNB-19 CNS, with U251 CNS and in the assay on UO-31 renal was above 100 µM each time. Moreover, the GI50 in the assay on U251 CNS was above 100 µM.

For the molecule `O=c1ncccn1C1C=C(CO)C(O)C1O` (stereo not drawn), the TGI in the assay on KM12 colon, with MALME-3M melanoma, with NCI-H23 lung, in the assay on OVCAR-5 ovarian, in the assay on SK-MEL-2 melanoma and with SK-MEL-28 melanoma was above 50 µM each time. Moreover, the TGI in the assay with SNB-19 CNS, in the assay with U251 CNS and with UO-31 renal was above 50 µM throughout.

On to `CC1(C)OC2COC3(CNO)OC(C)(C)OC3C2O1` (stereo not drawn), for which the TGI in the assay on KM12 colon, in the assay on MALME-3M melanoma, in the assay with NCI-H23 lung, with OVCAR-5 ovarian, in the assay with SK-MEL-2 melanoma and in the assay with SK-MEL-28 melanoma was above 100 µM each time. Besides, the TGI in the assay on SNB-19 CNS, in the assay on U251 CNS and with UO-31 renal was above 100 µM each time.

`NC(N)=NS(=O)(=O)c1ccc(NC(=O)c2cccc3c(Nc4ccc(S(N)(=O)=O)cc4)c4ccccc4nc23)cc1`: the TGI in the assay on KM12 colon, with MALME-3M melanoma, with NCI-H23 lung, with OVCAR-5 ovarian, in the assay on SK-MEL-2 melanoma and in the assay on SK-MEL-28 melanoma was above 100 µM each time. Besides, the TGI with SNB-19 CNS, with U251 CNS and in the assay with UO-31 renal was above 100 µM each time.
